Assay results taken from article PMC9144902, “Metal(II) Complexes of the Fluoroquinolone Fleroxacin: Synthesis, Characterization and Biological Profile” (Pharmaceutics, 2022).

Legend:
[1] = system: Staphylococcus aureus ATCC 6538; experiment: Antimicrobial activity, MIC determination; assay type: cell-based; details: S. aureus; 24-h incubation, 37°C
Protocol: (§1) The in vitro antimicrobial activity of the compounds was evaluated by determining the minimum inhibitory concentration (MIC) against the Gram-positive microorganisms Staphylococcus aureus ATCC 6538 (S. aureus) and Bacillus subtilis ATCC 6633 (B. subtilis) and the Gram-negative microorganism Xanthomonas campestris ATCC 1395 (X. campestris). The affinity of the compounds for bovine serum albumin (BSA) and human serum albumin (HSA) was studied by fluorescence emission spectroscopy, and the corresponding binding constants were determined. Furthermore, the interaction of the compounds with calf-thymus DNA (CT DNA) was investigated to determine the possible mode of interaction by the following methods: (i) UV–vis spectroscopy (where the DNA-binding constants of the complexes (Kb) were also determined), (ii) DNA-viscosity measurements, (iii) cyclic voltammetry and (iv) competitive DNA-binding studies with the classic intercalator ethidium bromide (EB) performed by fluorescence emission spectroscopy.
(§2) Three bacterial strains, one Gram(−) (X. campestris) and two Gram(+) (S. aureus and B. subtilis), were used in order to test the antimicrobial activity of the compounds.
(§3) The antimicrobial activity of the compounds was evaluated b y determining their respective MIC values towards one Gram–( –) (Xanthomonas campestris ATCC 1395 (X. campestris)) and two Gram–(+) (Staphylococcus aureus ATCC 6538 (S. aureus) and Bacillus subtilis ATCC 6633 (B. subtilis)) bacterial species. Cultures of these microbial strains were grown on a rich selective agar medium and stored at 4°C. The selective media used were Nutrient Agar or Broth for B. subtilis and S. aureus, and Yeast Mold Agar or Broth for X. campestris . Cells picked from the surface of the stored cultures were used to initiate liquid pre–cultures of the same selective medium at an initial turbidity of roughl y 1 McFarland unit. Pre–cultures were incubated for 24 h in a rotar y sh aking incubator and subsequently the y were used to inoculate the test cultures used for the determination of MIC at an initial turbidity of 0.5 McFarland units. The test cultures consisted of Mueller–Hinton broth (Deben Diagnostics Ltd) containing different concentrations of the compounds. Different concentrations were achieved as follows: the compounds were freshly dissolved in DMSO to a concentration of 1 mg/mL and they were diluted with DMSO, using the method of progressive double dilution. Therefore, working solutions with decreasing concentrations of the compounds under investigation were achieved. The working solutions were subsequently diluted to the final desired concentration b y addition to the growth medium at a proportion of 2:98. MIC values were determined as the lowest concentrations of the tested compounds that inhibited visible growth of each respective organism after a 24–h incubation [ S1]. Bacterial growth was determined b y measuring the turbidit y of appropriatel y diluted cultures at 600 nm with reference to equall y diluted sterile growth medium and the inhibition achieved was calculated b y comparing the turbidit y of each culture to the average of the turbidit y of three non–inhibited cultures. All test cultures were grown in triplicates and for the determination of MIC, growth had to be inhibited in at least two cultures of the triplicate. In cubation temperatur e at all stages was 37°C ex cept for X. campestris t h at was cultivated at 28°C [S2]. […]
(§4) The fluorescence spectra of the compounds were recorded under the same experimental conditions and presented a low–intensity emission band in the region 405–410 nm .

[2] = system: Xanthomonas campestris ATCC 1395; experiment: Antimicrobial activity, MIC determination; assay type: cell-based; details: X. campestris; 24-h incubation, 28°C
Protocol: as §1, §2, §3, §4

[3] = system: Bacillus subtilis ATCC 6633; experiment: Antimicrobial activity, MIC determination; assay type: cell-based; details: B. subtilis; 24-h incubation, 37°C
Protocol: as §1, §2, §3, §4

[4] = biological target: T1, bovine serum albumin (BSA) (Bos taurus, UniProt P02769); experiment: Albumin binding by tryptophan fluorescence emission quenching; details: for K(BSA), BSA-binding constant / kq(BSA), BSA-quenching constant: BSA 3 μM; for K(BSA), BSA-binding constant: buffer pH 7.0, Scatchard equation; for kq(BSA), BSA-quenching constant: buffer pH 7.0, λexc 295 nm, Stern–Volmer, τ0 = 10^–8 s; for BSA fluorescence, % of the initial fluorescence intensity (I/Io): λem,max = 342 nm, final value of titration (Figure S11)
T1 construct: purchased
Protocol: (§5) Serum albumins (Sas) are the most abundant serum proteins and play a role in the circulatory system, primarily in the transport of drugs and other bioactive small molecules through the bloodstream.
(§6) The SA-quenching constants (kq) for the compounds (Table 5) were calculated with the Stern–Volmer quenching equation (Equations (S2) and (S3)).
(§7) Albumin-binding constants (K) were calculated using the Scatchard equation (Equation (S4)). […]
(§8) S2. Interaction with serum albumins
(§9) The albumin–binding study for the compounds was carried out b y fluorescence emission

[5] = biological target: T2, human serum albumin (HSA) (Homo sapiens, UniProt P02768); experiment: as above; details: for K(HSA), HSA-binding constant / kq(HSA), HSA-quenching constant: HSA 3 μM; for K(HSA), HSA-binding constant: buffer pH 7.0, Scatchard equation; for kq(HSA), HSA-quenching constant: buffer pH 7.0, λexc 295 nm, Stern–Volmer, τ0 = 10^–8 s; for HSA fluorescence, % of the initial fluorescence intensity (I/Io): λem,max = 351 nm, final value of titration (Figure S10)
T2 construct: purchased
Protocol: as §5, §6, §7, §8, §9

[6] = system: EB–DNA adduct (CT DNA); experiment: Competitive study with EB (EB–DNA fluorescence quenching); assay type: binding, calf; details: for Ksv, Stern–Volmer constant: EB–DNA adduct; for ΔI/Io, percentage of EB–DNA fluorescence quenching: [EB] = 20 μM, [DNA] = 26 μM, λexc 540 nm, λem 592 nm; for EB–DNA relative fluorescence emission intensity, % of the initial (I/Io): λemission = 592 nm, final value (up to), Figure S14; for kq, EB–DNA quenching constant: τo = 23 ns
Protocol: Ethidium bromide is a typical marker of intercalation because it can intercalate between adjacent DNA bases with its planar phenanthridine ring.
The fluorescence emission spectra of the EB–DNA adduct ([EB] = 20 μM, [DNA] = 26 μM) in the absence and presence of the compounds were recorded at increasing amounts of the respective compounds. […] As a conclusion, an intercalative interaction of the complexes with CT DNA can be proposed.
The values of the Stern–Volmer constants (Ksv) for the compounds were calculated using the linear Stern–Volmer equation (Equation (S2)) and were of the order of 10^5 M^−1 (Table 8), indicating tight binding of the complexes with DNA [61]. The Ksv values for the complexes are in the range found for a number of metal(II)–quinolone complexes, and complex 12 presents the highest Ksv value (Ksv = 7.25(±0.30) × 10^5 M^−1) among the compounds studied. In addition, the EB–DNA quenching constants (kq) for the compounds were calculated with Equation (S3), assuming τo = 23 ns as the fluorescence lifetime. The values of kq (Table 8) are much higher than the value of 10^10 M^−1s^−1, indicating a static mechanism of EB–DNA fluorescence quenching induced by the compounds, which can result from the formation of a new adduct apparently consisting of each complex and DNA [61].
In order to determine and confirm the DNA–binding mode of the compounds, a competitive study with EB as an intercalating marker is performed b y fluorescence emission spectroscopy.
Therefo re, the E B–displacing abilit y of the compounds from its EB –DN A conjugate was ex amined.
The DNA–EB adduct was prepared b y addition of 20 μM EB and 26 μM CT DNA in buffer solution (150 mM NaCl and 15 mM trisodium citrate at pH 7.0). The potential intercalation of the compounds between the DNA–bases was studied by the addition of a certain amount of the compound solution into the EB–DNA adduct solution. The influence of the compounds on the EB – DNA solution was monitored through the changes of the fluorescence emission spectra at excitation […]
wavelen gth (λex ) at 540 nm [S3]. […]
room temperature in solution or in the presence of DNA, under the same experimental conditions (λex = 540 nm). Bearing t hat in mind, the observed quenching of the EB–DNA solution is evidentl y associated to the displacement of EB from its EB–DNA adduct.
The quenching effici ency (KSV) for each compound was assessed according to the Stern – Volmer equation: Io =1+ k τ [Q] = 1+ K [Q], (eq. S2) [S3] where I0 and I = the fluorescence […]
emission intensities of EB–DNA in the absence and presence of the quencher, respectivel y, [Q] = the concentration of the quencher (i.e. compounds). KSV is obtained from t he Stern–Volmer plots b y the slope of the diagram I0/ I versus [Q]. Taking τ0 = 23 ns as the fluorescence lifetime of the EB– DNA s ystem [S5], the EB –DNA quenching constants (k q) of the compounds can be determined accordin g to eq.S3: K SV = kqτo . […]
[S2] Irgi, E.P.; Geromichalos, G.D.; Balala, S.; Kljun, J.; Kalogiannis, S.; Papadopoulos, A.; Turel, I.; Psomas, G. Cobalt(II) complexes with quinolone antimicrobial drug oxolinic acid: […]
[ S 5] Heller, D.P.; Greenstock, C.L. Fluorescence lifetime analysis of DNA intercalated ethidium bromide and quenching by free d ye. Biophys. Chem . 1994, 50, 305–312.

T2 sequence (P02768 25-609): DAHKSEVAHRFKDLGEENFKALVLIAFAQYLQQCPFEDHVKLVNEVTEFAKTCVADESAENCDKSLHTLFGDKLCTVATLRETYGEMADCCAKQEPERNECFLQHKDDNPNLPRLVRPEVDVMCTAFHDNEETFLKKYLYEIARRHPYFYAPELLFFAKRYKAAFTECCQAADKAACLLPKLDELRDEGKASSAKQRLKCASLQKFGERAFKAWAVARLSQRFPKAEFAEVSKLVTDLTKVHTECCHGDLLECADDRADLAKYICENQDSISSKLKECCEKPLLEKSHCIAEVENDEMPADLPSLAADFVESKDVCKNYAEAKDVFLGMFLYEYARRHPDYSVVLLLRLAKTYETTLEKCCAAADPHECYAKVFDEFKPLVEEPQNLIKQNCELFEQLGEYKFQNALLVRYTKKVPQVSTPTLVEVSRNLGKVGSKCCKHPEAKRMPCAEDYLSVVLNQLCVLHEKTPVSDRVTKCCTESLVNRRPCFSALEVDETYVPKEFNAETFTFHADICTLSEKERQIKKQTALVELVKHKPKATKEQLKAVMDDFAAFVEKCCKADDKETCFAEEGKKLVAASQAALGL
T1 sequence (P02769 25-607): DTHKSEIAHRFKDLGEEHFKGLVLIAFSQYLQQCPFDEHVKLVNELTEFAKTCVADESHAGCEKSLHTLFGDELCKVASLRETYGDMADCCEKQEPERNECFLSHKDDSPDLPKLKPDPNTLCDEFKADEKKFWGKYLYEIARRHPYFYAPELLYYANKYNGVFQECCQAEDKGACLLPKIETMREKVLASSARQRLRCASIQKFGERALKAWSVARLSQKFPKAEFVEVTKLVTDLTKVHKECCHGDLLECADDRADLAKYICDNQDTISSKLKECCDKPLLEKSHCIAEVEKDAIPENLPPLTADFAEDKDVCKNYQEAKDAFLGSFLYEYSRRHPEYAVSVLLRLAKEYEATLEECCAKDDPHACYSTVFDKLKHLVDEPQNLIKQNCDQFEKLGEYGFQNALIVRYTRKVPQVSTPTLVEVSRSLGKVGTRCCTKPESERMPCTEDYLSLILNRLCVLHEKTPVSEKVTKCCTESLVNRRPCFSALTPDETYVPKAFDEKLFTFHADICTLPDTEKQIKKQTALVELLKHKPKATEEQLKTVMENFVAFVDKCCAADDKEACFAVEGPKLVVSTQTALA

CN1CCN(c2c(F)cc3c(=O)c(C(=O)[O-])cn(CCF)c3c2F)CC1.CN1CCN(c2c(F)cc3c(=O)c(C(=O)[O-])cn(CCF)c3c2F)CC1.[Zn+2].c1ccc(Nc2ccccn2)nc1 [complex 13, [Zn(flrx)2(bipyam)]]
MIC [1]: 8 µg/mL | MIC (values in parentheses) [1]: 8.2 µM | MIC [2]: 16 µg/mL | MIC (values in parentheses) [2]: 16.4 µM | MIC [3]: 4 µg/mL | MIC (values in parentheses) [3]: 4.1 µM | K(BSA), BSA-binding constant [4]: 3.60(±0.14) × 10^4 M^−1 | kq(BSA), BSA-quenching constant [4]: 3.37(±0.14) × 10^13 M^−1s^−1 | BSA fluorescence, % of the initial fluorescence intensity (I/Io) [4]: 14.6% | K(HSA), HSA-binding constant [5]: 3.69(±0.14) × 10^4 M^−1 | kq(HSA), HSA-quenching constant [5]: 1.23(±0.05) × 10^13 M^−1s^−1 | HSA fluorescence, % of the initial fluorescence intensity (I/Io) [5]: 27.9% | Ksv, Stern–Volmer constant [6]: 6.51(±0.19) × 10^5 M^–1 | ΔI/Io, percentage of EB–DNA fluorescence quenching [6]: 81.8% | EB–DNA relative fluorescence emission intensity, % of the initial (I/Io) [6]: 18.2% | kq, EB–DNA quenching constant [6]: 2.84(±0.08) × 10^13 M^−1s^−1

CN1CCN(c2c(F)cc3c(=O)c(C(=O)[O-])cn(CCF)c3c2F)CC1.CN1CCN(c2c(F)cc3c(=O)c(C(=O)[O-])cn(CCF)c3c2F)CC1.[Zn+2].c1ccc(-c2ccccn2)nc1 [complex 12, [Zn(flrx)2(bipy)]]
MIC [1]: 8 µg/mL | MIC (values in parentheses) [1]: 8.3 µM | MIC [2]: 16 µg/mL | MIC (values in parentheses) [2]: 16.7 µM | MIC [3]: 8 µg/mL | MIC (values in parentheses) [3]: 8.3 µM | K(BSA), BSA-binding constant [4]: 7.89(±0.33) × 10^4 M^−1 | kq(BSA), BSA-quenching constant [4]: 1.74(±0.08) × 10^13 M^−1s^−1 | BSA fluorescence, % of the initial fluorescence intensity (I/Io) [4]: 14.1% | K(HSA), HSA-binding constant [5]: 1.04(±0.06) × 10^5 M^−1 | kq(HSA), HSA-quenching constant [5]: 1.24(±0.04) × 10^13 M^−1s^−1 | HSA fluorescence, % of the initial fluorescence intensity (I/Io) [5]: 25.9% | Ksv, Stern–Volmer constant [6]: 7.25(±0.30) × 10^5 M^–1 | ΔI/Io, percentage of EB–DNA fluorescence quenching [6]: 88.6% | EB–DNA relative fluorescence emission intensity, % of the initial (I/Io) [6]: 11.4% | kq, EB–DNA quenching constant [6]: 3.15(±0.13) × 10^13 M^−1s^−1
